Laboratory results taken from PMC8422859, “A Novel Oral Arginase 1/2 Inhibitor Enhances the Antitumor Effect of PD-1 Inhibition in Murine Experimental Gliomas by Altering the Immunosuppressive Environment” (Frontiers in Oncology, 2021).

How the values were obtained:
[1] = tested on: GL261 tdTomato+luc+ glioma; experiment: GL261 intracranial glioma growth (tumor volume, bioluminescence); assay type: in vivo, mouse
Experimental: Mice were deeply anesthetized with isoflurane. After identifying the sagittal and coronal sutures on the right side, a hole was drilled at the following coordinates: 1 mm anterior and 1,5 mm lateral from bregma. GL261 tdTomato^+luc^+ glioma cells (80,000 in 1 μL of DMEM) were stereotactically injected with a Hamilton syringe to the right striatum of the mouse 3 mm deep from the surface of the brain. The skin incision was closed and mice were monitored until they completely recovered from anesthesia. Mice were randomly allocated to the study groups. The animals were weighed weekly and observed daily for clinical symptoms and evidence of toxicity by evaluating their eating, mobility, weight loss, hair loss, and hunched posture. OAT-1746 was administered by oral gavage at 50 mg/kg twice a day from day 1 after implantation. Anti-PD-1 antibody (Biolegend, GoInVivo™ Purified anti-mouse CD279) was injected intraperitoneally (i.p.) at a dose of 2.5 mg/kg on days 8, 10, 12, 14 post-implantation. Control groups received vehicle (saline) twice a day by gavage. Animals were euthanized when they lost more than 20% of body weight compared to day 0.
To monitor tumor growth, mice were injected i.p. with 150 mg/kg body weight luciferin (D-luciferin sodium salt BC218 Synchem) and left for 8 min. Then, the animals were anesthetized with 3% isoflurane and transferred to the X-treme Imaging System (Bruker, Germany). At 10 min after the D-luciferin injection, a photonic emission was imaged. Tumors were visualized at days 14, 21 and 28 after implantation and bioluminescent images were quantified as photon/sec/mm^2. […]
The animals were sacrificed on the day 21 after GL261 tdTomato^+luc^+ cell implantation and perfused with 4% paraformaldehyde in PBS. […] To quantify the tumor size, sections were stained with toluidine blue, and images were acquired using a Leica DM4000B microscope (Leica Microsystems, Wetzlar, Germany). Tumor areas were measured using ImageJ software (NIH, Bethesda, MD, USA) on every sixth brain slice, and tumor volumes were calculated as previously described ([26]).

[2] = tested on: glioma-associated CD11b+ cells; experiment: RNA-seq of CD11b+ cells from tumor-bearing hemispheres; assay type: in vivo, mouse
Experimental: Immediately after sorting, CD11b^+ cells were centrifuged and lysed for further isolation of RNA using the RNeasy Plus Mini Kit (Qiagen, Germany). The integrity and quality of RNA were assessed on an Agilent 2100 Bioanalyzer with an RNA 6000 Pico Kit (Agilent Technologies, CA, USA). A total of 9 strand-specific RNA libraries were prepared for sequencing (2-3 biological replicates/treatment) using a KAPA Stranded mRNA-Seq Kit (Kapa Biosystems, MA, USA). Poly-A mRNAs were purified from 100 ng of total RNA using poly-T-oligo-magnetic beads (Kapa Biosystems, MA, USA). mRNAs were fragmented and a first-strand cDNA was synthesized using reverse transcriptase and random hexamers. […] Final libraries were analyzed using Bioanalyzer and Agilent DNA High Sensitivity chips (Agilent Technologies, Santa Clara, CA, USA) to confirm fragment sizes (~300 bp). Quantification was performed using a Quantus fluorometer and the QuantiFluor dsDNA System (Promega, Madison, Wisconsin, US). […]
Illumina-specific adapters, short reads, and low quality 5’ and 3’ bases were filtered out in the FASTQ format files using Trimmomatic ([27]) tool (version 0.36). The resulting RNA sequencing reads were aligned to a reference mouse genome sequence (mm10) with STAR aligner ([28]) (version 2.6.1b) using the two pass Mode Basic option. […]

[3] = tested on: human and murine T cells; parameters: method as in PMID 31278254; details: cited from earlier work

## CN(C)C[C@@H]1CC[C@@H](CCB(O)O)C[C@]1(N)C(=O)O [OAT-1746]
[1]; bioluminescence, day 14
  animals that developed tumors at day 14: 5 out of 8
[1]; day 21, OAT-1746 50 mg/kg oral twice a day, anti-PD-1 2.5 mg/kg i.p. days 8, 10, 12, 14
  tumor growth (tumor volume on brain sections): did not reduce the tumor growth
[1]; days 14, 21, 28 post-implantation
  glioma growth (bioluminescence imaging): did not show any effect on the tumor volume
[2]
  differentially expressed genes versus CTR (padj<0.05): over 1800 genes
[3]
  ARG1-inhibited proliferation of human and murine T cells: reversed
